This is an account of results in patent US20230089867A1, “CYCLIC PENTAMER COMPOUNDS AS PROPROTEIN CONVERTASE SUBTILISIN/KEXIN TYPE 9 (PCSK9) INHIBITORS FOR THE TREATMENT OF METABOLIC DISORDER” (Novartis AG, priority 2018, published 2023).

This assay concerns the target human PCSK9 (Homo sapiens, UniProt Q8NBP7). The assay is described as follows: PCSK9 ligand binding TR-FRET assay (interference with binding of human PCSK9 to human LDLR). To be noted: for Max % inhibition: PCSK9 FRET assay, efficacy (Amax), 100% = 1 uM unlabeled human PCSK9, 0% = DMSO; for IC50: TR-FRET, human PCSK9 Alexa Fluor 647 / human LDLR extracellular domain-Europium Kryptate, read-out: PCSK9 FRET Assay IC50. The protocol:
The PCSK9 binding of the compounds of the disclosure were measured using a time resolved fluorescence resonance energy transfer (TR-FRET) assay. This time resolved fluorescence resonance energy transfer (TR-FRET) assay measures the ability of a compound of the present disclosure to interfere with the binding of human PCSK9 to human LDLR, providing measures of both potency (IC50) and efficacy (Amax).
These solutions were pipetted into columns 1 and 11 of the compound plate. Threefold serial dilutions were generated in columns 2-10 and 12-20 of the compound plate by transferring 10 uL into 20 uL of DMSO. Columns 21 and 22 of the compound plate were negative controls containing DMSO alone.
An intermediate plate was generated in a Greiner V bottom plate by transferring 8 uL from each well of the master plate into a corresponding well containing 92 uL of assay buffer and mixing thoroughly.
A Proxi plate-low volume assay plate was used for the assay. […] For the positive control wells in columns 23 and 24 of the plate, 5 uL of unlabeled human PCSK9 was added at 4 uM in assay buffer containing 8% DMSO. Following a 30 minute incubation, 5 uL of 4 nM Human LDLR extracellular domain-Europium Kryptate was added and the mixture was incubated for an additional 2 hours.
The FRET ratio (FRET/Europium) was used for calculations.
Data is expressed as percent inhibition: (value−0%)/(100%−0%).
In general terms: In TR-FRET formats the signal depends on donor and acceptor labels being close together.

Structures are written as SMILES.

Sequence of human PCSK9 (Q8NBP7 153-692): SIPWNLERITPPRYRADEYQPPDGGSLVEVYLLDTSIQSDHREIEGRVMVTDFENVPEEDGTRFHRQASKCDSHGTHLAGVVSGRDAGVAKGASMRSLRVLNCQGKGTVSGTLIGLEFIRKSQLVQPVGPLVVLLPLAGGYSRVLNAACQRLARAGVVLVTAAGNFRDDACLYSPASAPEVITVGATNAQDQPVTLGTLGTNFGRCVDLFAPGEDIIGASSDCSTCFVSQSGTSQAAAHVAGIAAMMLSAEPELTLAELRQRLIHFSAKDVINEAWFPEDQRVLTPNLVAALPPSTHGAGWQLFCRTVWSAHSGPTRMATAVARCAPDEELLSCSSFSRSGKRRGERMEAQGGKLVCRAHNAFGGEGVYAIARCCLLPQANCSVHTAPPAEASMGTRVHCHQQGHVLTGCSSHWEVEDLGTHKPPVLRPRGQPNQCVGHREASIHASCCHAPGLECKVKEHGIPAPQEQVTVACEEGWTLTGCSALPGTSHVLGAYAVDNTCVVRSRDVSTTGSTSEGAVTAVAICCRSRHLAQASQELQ
Sequence of human PCSK9 (Q8NBP7 31-152 partner limits assumed): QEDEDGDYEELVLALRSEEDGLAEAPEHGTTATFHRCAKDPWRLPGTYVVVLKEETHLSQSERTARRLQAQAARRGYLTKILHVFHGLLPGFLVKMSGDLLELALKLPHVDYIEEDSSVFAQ

Regarding `COC[C@@H]1NC(=O)[C@H](CC(=O)N2CCOCC2)N(Cc2ccc(Cl)cc2Oc2ccc(-c3cnc(CN(C)C)n3C)cc2)C(=O)C[C@@H](Cc2ccccc2)C(=O)N(C)[C@H]2CCCC[C@@H]2NC(=O)C[C@H](Cc2ccc(Cl)cc2)N(C)C1=O` [Compound 20, (4S,7S,10S,14R,16aS,20aS)-14-benzyl-11-(4-chloro-2-(4-(2-((dimethylamino)methyl)-1-methyl-1H-imidazol-5-yl)phenoxy)benzyl)-4-(4-chlorobenzyl)-7-(methoxymethyl)-5,16-dimethyl-10-(2-morpholino-2-oxoethyl)hexadecahydrobenzo[l][1,4,7,11,14]pentaazacyclooctadecine-2,6,9,12,15(3H)-pentaone], the Max % inhibition was 98.33% and the IC50 (commonly the midpoint of a concentration-inhibition curve) came out at 1.2 nM.
As to `CC(O)c1ncc(-c2ccc(Oc3cc(Cl)ccc3CN3C(=O)C[C@@H](Cc4ccccc4)C(=O)N(C)[C@@H](C)CNC(=O)C[C@H](Cc4ccc(Cl)cc4)N(C)C(=O)[C@H](CO)NC(=O)[C@@H]3C)cc2)n1C` (stereo partly drawn) [Compound 21, (2S,5S,8S,13S,16R)-16-benzyl-1-(4-chloro-2-(4-(2-(1-hydroxyethyl)-1-methyl-1H-imidazol-5-yl)phenoxy)benzyl)-8-(4-chlorobenzyl)-5-(hydroxymethyl)-2,7,13,14-tetramethyl-1,4,7,11,14-pentaazacyclooctadecane-3,6,10,15,18-pentaone], the Max % inhibition is recorded as 66.09% and the IC50 is 2.4 nM.
With `COC[C@@H]1NC(=O)[C@H](C)N(Cc2ccc(Cl)cc2Oc2ccc(-c3cnc(CN4CCCC4)n3C)cc2)C(=O)C[C@@H](Cc2ccc(F)cc2F)C(=O)N(C)[C@@H](C)CNC(=O)C[C@H](Cc2ccc(Cl)cc2)N(C)C1=O` [Compound 22, (2S,5S,8S,13S,16R)-1-(4-chloro-2-(4-(1-methyl-2-(pyrrolidin-1-ylmethyl)-1H-imidazol-5-yl)phenoxy)benzyl)-8-(4-chlorobenzyl)-16-(2,4-difluorobenzyl)-5-(methoxymethyl)-2,7,13,14-tetramethyl-1,4,7,11,14-pentaazacyclooctadecane-3,6,10,15,18-pentaone], the Max % inhibition is recorded as 98.82% and the half-inhibitory concentration (IC50) came out at 1.1 nM.
Turning to `CCc1ccc(CN2C(=O)C[C@@H](Cc3ccccc3)C(=O)N(C)[C@H]3CCCC[C@@H]3NC(=O)C[C@H](Cc3ccc(Cl)cc3)N(C)C(=O)[C@H](COC)NC(=O)[C@@H]2C)c(Oc2ccc(-c3cnc(CN4CC5(COC5)C4)n3C)cc2)c1` [Compound 23, (4S,7S,10S,14R,16aS,20aS)-11-(2-(4-(2-(2-oxa-6-azaspiro[3.3]heptan-6-ylmethyl)-1-methyl-1H-imidazol-5-yl)phenoxy)-4-ethylbenzyl)-14-benzyl-4-(4-chlorobenzyl)-7-(methoxymethyl)-5,10,16-trimethylhexadecahydrobenzo[l][1,4,7,11,14]pentaazacyclooctadecine-2,6,9,12,15(3H)-pentaone], the Max % inhibition is reported as 96.76% and the IC50 was 2.2 nM.
For `C[C@H]1CNC(=O)C[C@H](Cc2ccc(Cl)cc2)NC(=O)[C@H](CF)NC(=O)[C@H](C)N(Cc2ccc(Cl)cc2Oc2ccc(-c3cnc(CN4CCCC4)n3C)cc2)C(=O)C[C@@H](Cc2ccccc2)C(=O)N1C` [Compound 25, (2S,5R,8S,13S,16R)-16-benzyl-1-(4-chloro-2-(4-(1-methyl-2-(pyrrolidin-1-ylmethyl)-1H-imidazol-5-yl)phenoxy)benzyl)-8-(4-chlorobenzyl)-5-(fluoromethyl)-2,13,14-trimethyl-1,4,7,11,14-pentaazacyclooctadecane-3,6,10,15,18-pentaone] the same measures were 52.86% and 113 nM.
Turning to `COC[C@H]1CNC(=O)C[C@H](Cc2ccc(Cl)cc2)N(C)C(=O)[C@H](COC)NC(=O)[C@H](C)N(Cc2ccc(Cl)cc2Oc2ccc(-c3cnc(CN(C)C)n3C)cc2)C(=O)C[C@@H](Cc2ccccc2)C(=O)N1C` [Compound 27, (2S,5S,8S,13R,16R)-16-benzyl-1-(4-chloro-2-(4-(2-((dimethylamino)methyl)-1-methyl-1H-imidazol-5-yl)phenoxy)benzyl)-8-(4-chlorobenzyl)-5,13-bis(methoxymethyl)-2,7,14-trimethyl-1,4,7,11,14-pentaazacyclooctadecane-3,6,10,15,18-pentaone], the Max % inhibition worked out at 101.53% and the concentration for half-maximal inhibition (IC50) was found to be 1.1 nM.
Consider `COC[C@@H]1NC(=O)[C@H](C)N(Cc2ccc(Cl)cc2Oc2ccc(-c3cnc(C4CCCN4C)n3C)cc2)C(=O)C[C@@H](Cc2ccccc2)C(=O)N(C)[C@@H](C)CNC(=O)C[C@H](Cc2ccc(Cl)cc2)N(C)C1=O` (stereo partly drawn) [Compound 28, (2S,5S,8S,13S,16R)-16-benzyl-1-(4-chloro-2-(4-(1-methyl-2-(1-methylpyrrolidin-2-yl)-1H-imidazol-5-yl)phenoxy)benzyl)-8-(4-chlorobenzyl)-5-(methoxymethyl)-2,7,13,14-tetramethyl-1,4,7,11,14-pentaazacyclooctadecane-3,6,10,15,18-pentaone], for which the Max % inhibition was found to be 102.04% and the IC50 was determined as 3.6 nM.
For `COC[C@@H]1NC(=O)[C@H](CCN(C)C)N(Cc2ccc(Cl)cc2Oc2ccc(-c3cnc(CN(C)C)n3C)cc2)C(=O)C[C@@H](Cc2ccccc2)C(=O)N(C)[C@H]2CCCC[C@@H]2NC(=O)C[C@H](Cc2ccc(Cl)cc2)N(C)C1=O` [Compound 29, (4S,7S,10S,14R,16aS,20aS)-14-benzyl-11-(4-chloro-2-(4-(2-((dimethylamino)methyl)-1-methyl-1H-imidazol-5-yl)phenoxy)benzyl)-4-(4-chlorobenzyl)-10-(2-(dimethylamino)ethyl)-7-(methoxymethyl)-5,16-dimethylhexadecahydrobenzo[l][1,4,7,11,14]pentaazacyclooctadecine-2,6,9,12,15(3H)-pentaone], the Max % inhibition stood at 94.90% and the concentration for half-maximal inhibition (IC50) is 0.6 nM.
Turning to `CCCC#Cc1ncc(-c2ccc(Oc3cc(Cl)ccc3CN3C(=O)C[C@@H](Cc4ccccc4)C(=O)N(C)[C@@H](C)CNC(=O)C[C@H](Cc4ccc(Cl)cc4)N(C)C(=O)[C@H](COC)NC(=O)[C@@H]3C)cc2)n1C` [Compound 30, (2S,5S,8S,13S,16R)-16-benzyl-1-(4-chloro-2-(4-(1-methyl-2-(pent-1-yn-1-yl)-1H-imidazol-5-yl)phenoxy)benzyl)-8-(4-chlorobenzyl)-5-(methoxymethyl)-2,7,13,14-tetramethyl-1,4,7,11,14-pentaazacyclooctadecane-3,6,10,15,18-pentaone], the Max % inhibition came to 85.21% and the IC50 came out at 59.8 nM.
Regarding `C[C@H]1CNC(=O)C[C@H](Cc2ccc(Cl)cc2)N(C)C(=O)[C@H](C2COC2)NC(=O)[C@H](C)N(Cc2ccc(Cl)cc2Oc2ccc(-c3cnc(CN(C)C)n3C)cc2)C(=O)C[C@@H](Cc2ccccc2)C(=O)N1C` [Compound 31, (2S,5S,8S,13S,16R)-16-benzyl-1-(4-chloro-2-(4-(2-((dimethylamino)methyl)-1-methyl-1H-imidazol-5-yl)phenoxy)benzyl)-8-(4-chlorobenzyl)-2,7,13,14-tetramethyl-5-(oxetan-3-yl)-1,4,7,11,14-pentaazacyclooctadecane-3,6,10,15,18-pentaone], the Max % inhibition is listed as 60.09% and the IC50 was 787 nM.
